# From ChEMBL document CHEMBL2057064, “Activation of human RNase L by 2'- and 5'-O-methylphosphonate-modified oligoadenylates” (Bioorg Med Chem Lett, 2012)
# Activity calls are given as the source filed them. No cut-off for these calls is given here.
# Experiments:
# [1] = biological target: T1, 2-5A-dependent ribonuclease (Homo sapiens) (UniProt Q05823); experiment: (§1) Activation of human RNase L expressed in Escherichia coli BL21 (DE3) cells assessed as RNA cleavage using Cy5-rC11-UU-C7-BHQ2 as substrate by FRET assay
# T1 sequence (whole entry): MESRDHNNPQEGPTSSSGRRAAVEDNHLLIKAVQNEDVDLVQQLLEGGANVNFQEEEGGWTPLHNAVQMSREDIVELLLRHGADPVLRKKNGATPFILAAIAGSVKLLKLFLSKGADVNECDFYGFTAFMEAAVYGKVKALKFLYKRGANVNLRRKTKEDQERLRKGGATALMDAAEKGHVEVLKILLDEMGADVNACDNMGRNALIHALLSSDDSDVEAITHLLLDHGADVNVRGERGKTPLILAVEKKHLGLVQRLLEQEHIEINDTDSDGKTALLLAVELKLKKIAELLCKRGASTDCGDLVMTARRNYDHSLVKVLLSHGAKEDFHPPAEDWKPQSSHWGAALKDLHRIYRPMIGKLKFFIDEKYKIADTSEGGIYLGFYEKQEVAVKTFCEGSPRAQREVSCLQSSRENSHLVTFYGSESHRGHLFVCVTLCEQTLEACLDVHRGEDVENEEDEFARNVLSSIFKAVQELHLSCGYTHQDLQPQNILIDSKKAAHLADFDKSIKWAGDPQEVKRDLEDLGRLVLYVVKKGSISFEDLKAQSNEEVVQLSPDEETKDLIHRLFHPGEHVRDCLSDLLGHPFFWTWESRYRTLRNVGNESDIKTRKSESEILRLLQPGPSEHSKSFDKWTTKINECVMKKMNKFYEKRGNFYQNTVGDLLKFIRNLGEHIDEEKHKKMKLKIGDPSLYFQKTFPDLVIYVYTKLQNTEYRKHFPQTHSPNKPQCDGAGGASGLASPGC
# [2] = biological target: T2, 2-5A-dependent ribonuclease (Homo sapiens, UniProt Q05823); experiment: as §1
# T2 sequence (Q05823 whole entry): T1 sequence (whole entry)
# [3] = biological target: T1, 2-5A-dependent ribonuclease (Homo sapiens); experiment: Antagonist activity at human RNase L expressed in Escherichia coli BL21 (DE3) cells assessed as RNA cleavage using Cy5-C11-rUU-C7-BHQ2 as substrate by FRET assay in presence of natural activator pAAAA; assay type: functional
SMILES,Activity [1],EC50 [2],inhibition [3]
Nc1ncnc2c1ncn2[C@@H]1O[C@H](COP(=O)(O)O[C@@H]2[C@H](O)[C@@H](COP(=O)(O)O[C@@H]3[C@H](O)[C@@H](COP(=O)(O)O[C@H]4[C@H](O)[C@@H](COCP(=O)(O)O)O[C@H]4n4cnc5c(N)ncnc54)O[C@H]3n3cnc4c(N)ncnc43)O[C@H]2n2cnc3c(N)ncnc32)[C@@H](O)[C@H]1O,Active,1000 nM,–
Nc1ncnc2c1ncn2[C@@H]1O[C@H](COP(=O)(O)O[C@@H]2[C@H](O)[C@@H](COP(=O)(O)O[C@@H]3[C@H](O)[C@@H](COP(=O)(O)O[C@@H]4[C@H](O)[C@@H](COCP(=O)(O)O)O[C@H]4n4cnc5c(N)ncnc54)O[C@H]3n3cnc4c(N)ncnc43)O[C@H]2n2cnc3c(N)ncnc32)[C@@H](O)[C@H]1O,–,53 nM,–
Nc1ncnc2c1ncn2[C@@H]1O[C@H](COP(=O)(O)O[C@H]2[C@H](O)[C@@H](COCP(=O)(O)O[C@@H]3[C@H](O)[C@@H](COP(=O)(O)O[C@@H]4[C@H](O)[C@@H](COP(=O)(O)O)O[C@H]4n4cnc5c(N)ncnc54)O[C@H]3n3cnc4c(N)ncnc43)O[C@H]2n2cnc3c(N)ncnc32)[C@@H](O)[C@H]1O,–,> 1000 nM,–
Nc1ncnc2c1ncn2[C@@H]1O[C@H](COP(=O)(O)O[C@@H]2[C@@H](O)[C@@H](COCP(=O)(O)O[C@@H]3[C@H](O)[C@@H](COP(=O)(O)O[C@@H]4[C@H](O)[C@@H](COP(=O)(O)O)O[C@H]4n4cnc5c(N)ncnc54)O[C@H]3n3cnc4c(N)ncnc43)O[C@H]2n2cnc3c(N)ncnc32)[C@@H](O)[C@H]1O,Active,1000 nM,–
Nc1ncnc2c1ncn2[C@@H]1O[C@H](COCP(=O)(O)O[C@@H]2[C@H](O)[C@@H](COP(=O)(O)O[C@@H]3[C@H](O)[C@@H](COP(=O)(O)O[C@@H]4[C@H](O)[C@@H](COP(=O)(O)O)O[C@H]4n4cnc5c(N)ncnc54)O[C@H]3n3cnc4c(N)ncnc43)O[C@H]2n2cnc3c(N)ncnc32)[C@@H](O)[C@H]1O,Active,15 nM,–
Nc1ncnc2c1ncn2[C@@H]1O[C@H](COP(=O)(O)O[C@@H]2[C@H](O)[C@@H](COP(=O)(O)O[C@H]3[C@H](O)[C@@H](COCP(=O)(O)O[C@@H]4[C@H](O)[C@@H](COP(=O)(O)O)O[C@H]4n4cnc5c(N)ncnc54)O[C@H]3n3cnc4c(N)ncnc43)O[C@H]2n2cnc3c(N)ncnc32)[C@@H](O)[C@H]1O,–,> 1000 nM,–
Nc1ncnc2c1ncn2[C@@H]1O[C@H](COP(=O)(O)O[C@@H]2[C@@H](O)[C@@H](COCP(=O)(O)O[C@@H]3[C@@H](O)[C@@H](COCP(=O)(O)O[C@@H]4[C@H](O)[C@@H](COP(=O)(O)O)O[C@H]4n4cnc5c(N)ncnc54)O[C@H]3n3cnc4c(N)ncnc43)O[C@H]2n2cnc3c(N)ncnc32)[C@@H](O)[C@H]1O,–,–,inactive
Nc1ncnc2c1ncn2[C@@H]1O[C@H](COCP(=O)(O)O[C@@H]2[C@H](O)[C@@H](COP(=O)(O)O[C@@H]3[C@H](O)[C@@H](COCP(=O)(O)O[C@@H]4[C@H](O)[C@@H](COP(=O)(O)O)O[C@H]4n4cnc5c(N)ncnc54)O[C@H]3n3cnc4c(N)ncnc43)O[C@H]2n2cnc3c(N)ncnc32)[C@@H](O)[C@H]1O,–,–,inactive
Nc1ncnc2c1ncn2[C@@H]1O[C@H](COCP(=O)(O)O[C@@H]2[C@H](O)[C@@H](COCP(=O)(O)O[C@@H]3[C@H](O)[C@@H](COP(=O)(O)O[C@@H]4[C@H](O)[C@@H](COP(=O)(O)O)O[C@H]4n4cnc5c(N)ncnc54)O[C@H]3n3cnc4c(N)ncnc43)O[C@H]2n2cnc3c(N)ncnc32)[C@@H](O)[C@H]1O,–,–,inactive
Nc1ncnc2c1ncn2[C@@H]1O[C@H](COCP(=O)(O)O[C@H]2[C@H](O)[C@@H](COCP(=O)(O)O[C@H]3[C@H](O)[C@@H](COCP(=O)(O)O[C@@H]4[C@H](O)[C@@H](COP(=O)(O)O)O[C@H]4n4cnc5c(N)ncnc54)O[C@H]3n3cnc4c(N)ncnc43)O[C@H]2n2cnc3c(N)ncnc32)[C@@H](O)[C@@H]1O,–,–,inactive
Nc1ncnc2c1ncn2[C@@H]1O[C@H](COP(=O)(O)O[C@@H]2[C@@H](O)[C@@H](COCP(=O)(O)O[C@@H]3[C@H](O)[C@@H](COP(=O)(O)O[C@@H]4[C@@H](O)[C@@H](COCP(=O)(O)O)O[C@H]4n4cnc5c(N)ncnc54)O[C@H]3n3cnc4c(N)ncnc43)O[C@H]2n2cnc3c(N)ncnc32)[C@@H](O)[C@H]1O,–,–,inactive
Nc1ncnc2c1ncn2[C@@H]1O[C@H](COCP(=O)(O)O[C@@H]2[C@H](O)[C@@H](COP(=O)(O)O[C@@H]3[C@@H](O)[C@@H](COCP(=O)(O)O[C@@H]4[C@H](O)[C@@H](COP(=O)(O)O)O[C@H]4n4cnc5c(N)ncnc54)O[C@H]3n3cnc4c(N)ncnc43)O[C@H]2n2cnc3c(N)ncnc32)[C@H](O)[C@H]1O,–,–,inactive
Nc1ncnc2c1ncn2[C@@H]1O[C@H](COCP(=O)(O)O[C@H]2[C@H](O)[C@@H](COCP(=O)(O)O[C@@H]3[C@H](O)[C@@H](COP(=O)(O)O[C@H]4[C@H](O)[C@@H](COCP(=O)(O)O)O[C@H]4n4cnc5c(N)ncnc54)O[C@H]3n3cnc4c(N)ncnc43)O[C@H]2n2cnc3c(N)ncnc32)[C@@H](O)[C@@H]1O,–,–,inactive

# Second part, the compound after the results:
Activity [1],EC50 [2],inhibition [3],SMILES
–,> 1000 nM,–,Nc1ncnc2c1ncn2[C@@H]1O[C@H](COP(=O)(O)O[C@@H]2[C@H](O)[C@@H](COP(=O)(O)O[C@@H]3[C@H](O)[C@@H](COP(=O)(O)CO[C@@H]4[C@H](O)[C@@H](COP(=O)(O)O)O[C@H]4n4cnc5c(N)ncnc54)O[C@H]3n3cnc4c(N)ncnc43)O[C@H]2n2cnc3c(N)ncnc32)[C@@H](O)[C@H]1O
Active,300 nM,–,Nc1ncnc2c1ncn2[C@@H]1O[C@H](COP(=O)(O)O[C@@H]2[C@H](O)[C@@H](COP(=O)(O)O[C@@H]3[C@H](O)[C@@H](COP(=O)(O)CO[C@@H]4[C@@H](O)[C@@H](COP(=O)(O)O)O[C@H]4n4cnc5c(N)ncnc54)O[C@H]3n3cnc4c(N)ncnc43)O[C@H]2n2cnc3c(N)ncnc32)[C@@H](O)[C@H]1O
Active,200 nM,–,Nc1ncnc2c1ncn2[C@@H]1O[C@H](COP(=O)(O)CO[C@@H]2[C@H](O)[C@@H](COP(=O)(O)O[C@@H]3[C@H](O)[C@@H](COP(=O)(O)O[C@@H]4[C@H](O)[C@@H](COP(=O)(O)O)O[C@H]4n4cnc5c(N)ncnc54)O[C@H]3n3cnc4c(N)ncnc43)O[C@H]2n2cnc3c(N)ncnc32)[C@@H](O)[C@H]1O
–,> 1000 nM,–,Nc1ncnc2c1ncn2[C@@H]1O[C@H](COP(=O)(O)O[C@@H]2[C@H](O)[C@@H](COP(=O)(O)CO[C@@H]3[C@H](O)[C@@H](COP(=O)(O)O[C@@H]4[C@H](O)[C@@H](COP(=O)(O)O)O[C@H]4n4cnc5c(N)ncnc54)O[C@H]3n3cnc4c(N)ncnc43)O[C@H]2n2cnc3c(N)ncnc32)[C@@H](O)[C@H]1O
–,> 1000 nM,–,Nc1ncnc2c1ncn2[C@@H]1O[C@H](COP(=O)(O)CO[C@@H]2[C@@H](O)[C@@H](COP(=O)(O)O[C@@H]3[C@H](O)[C@@H](COP(=O)(O)O[C@@H]4[C@H](O)[C@@H](COP(=O)(O)O)O[C@H]4n4cnc5c(N)ncnc54)O[C@H]3n3cnc4c(N)ncnc43)O[C@H]2n2cnc3c(N)ncnc32)[C@@H](O)[C@H]1O
–,> 1000 nM,–,Nc1ncnc2c1ncn2[C@@H]1O[C@H](COP(=O)(O)O[C@@H]2[C@H](O)[C@@H](COP(=O)(O)CO[C@@H]3[C@@H](O)[C@@H](COP(=O)(O)O[C@@H]4[C@H](O)[C@@H](COP(=O)(O)O)O[C@H]4n4cnc5c(N)ncnc54)O[C@H]3n3cnc4c(N)ncnc43)O[C@H]2n2cnc3c(N)ncnc32)[C@@H](O)[C@H]1O
–,> 1000 nM,–,Nc1ncnc2c1ncn2[C@@H]1O[C@H](COP(=O)(O)O[C@@H]2[C@H](O)[C@@H](COP(=O)(O)O[C@@H]3[C@H](O)[C@@H](COP(=O)(O)CO[C@H]4[C@H](O)[C@@H](COP(=O)(O)O)O[C@H]4n4cnc5c(N)ncnc54)O[C@H]3n3cnc4c(N)ncnc43)O[C@H]2n2cnc3c(N)ncnc32)[C@@H](O)[C@H]1O
–,17 nM,–,Nc1ncnc2c1ncn2[C@@H]1O[C@H](COP(=O)(O)O[C@@H]2[C@H](O)[C@@H](COP(=O)(O)O[C@@H]3[C@H](O)[C@@H](COP(=O)(O)O[C@@H]4[C@H](O)[C@@H](COP(=O)(O)O)O[C@H]4n4cnc5c(N)ncnc54)O[C@H]3n3cnc4c(N)ncnc43)O[C@H]2n2cnc3c(N)ncnc32)[C@@H](O)[C@H]1O
–,> 1000 nM,–,Nc1ncnc2c1ncn2[C@@H]1O[C@H](COP(=O)(O)O[C@@H]2[C@H](O)[C@@H](COP(=O)(O)O[C@@H]3[C@@H](O)[C@@H](COCP(=O)(O)O[C@@H]4[C@H](O)[C@@H](COP(=O)(O)O)O[C@H]4n4cnc5c(N)ncnc54)O[C@H]3n3cnc4c(N)ncnc43)O[C@H]2n2cnc3c(N)ncnc32)[C@@H](O)[C@H]1O
–,> 1000 nM,–,Nc1ncnc2c1ncn2[C@@H]1O[C@H](COP(=O)(O)O[C@@H]2[C@H](O)[C@@H](COP(=O)(O)CO[C@H]3[C@H](O)[C@@H](COP(=O)(O)O[C@@H]4[C@H](O)[C@@H](COP(=O)(O)O)O[C@H]4n4cnc5c(N)ncnc54)O[C@H]3n3cnc4c(N)ncnc43)O[C@H]2n2cnc3c(N)ncnc32)[C@@H](O)[C@H]1O
